Experimental data from patent USRE39708E1, “Estrogen receptor modulators” (Chiron Corporation, priority 1998, dated 2007).

Tested on: MCF-7 cells
Test: MCF-7 cell proliferation assay (BrdU incorporation)
Type: cell-based
Conditions: MCF-7 proliferation, 24 hours, in the absence of estradiol or in the presence of 1 nM estradiol
Protocol: MCF-7 cells are a common line of breast cancer cells used to determine in vitro estrogen receptor agonist/antagonist activity (MacGregor and Jordan 1998). The effect of a test compound on the proliferation of MCF-7 cells, as measured by the incorporation of 5-bromo-2′-deoxyuridine (“BrdU”) in a chemiluminescent assay format, can be used to determine the relative agonist/antagonist activity of the test compound. MCF-7 cells (ATCC HTB-22) are mainatined in log-phase culture. The cells are plated and incubated in phenol-free medium to avoid external sources of iS estrogenic stimulus (MacGregor and Jordan 1998). The test compound is added at varying concentrations to determine an IC50, for the compound. […]
This assay determines the estrogen agonist/antagonist activity of a test compound by the effect of the test compound on the proliferation of MCF-7 cells as measured by the incorporation of 5-bromo-2′-deoxyuridine (“BrdU”) in a chemiluminescent assay format. […]
The cells were cultured in the presence of test compounds for 24 hours at 37° C. and under a 5% CO2 atmosphere Cell proliferation was detected by measuring the level of BrdU incorporation into DNA. […] The plates were shaken for ten minutes at room temperature, and the resulting chemiluminescent signals were counted using a TRILUX scintillation counter.

SMILES | concentration at which activity was demonstrated
CCc1c(-c2ccc(O)cc2)nn(-c2ccccc2C(F)(F)F)c1-c1ccc(O)cc1 [4-{4-ethyl-5-(4-hydroxyphenyl)-1-[2-(trifluoromethyl)phenyl]pyrazol-3-yl}phenol] | less than one hundred
CCc1c(-c2ccc(O)cc2)nn(C2CCC2)c1-c1ccc(O)cc1 [4-[1-cyclobutyl-4-ethyl-5-(4-hydroxyphenyl)pyrazol-3-yl]phenol] | less than one hundred
